For data set [1], the system named is CYP1A2, CYP2A6, CYP2B6, CYP2C8, CYP2C9, CYP2C19, CYP2D6, CYP2E1, and CYP3A4/5. More on the design: method as in Investigator's Brochure. As to conditions: all nine isozymes tested, ref Investigator's Brochure; cited from earlier work.
The test system of a further data set is U-2932 (DOX-R). Also noted: method as in Report CC-90010-Pharm-1018. As to conditions: Table 2, ref Report CC-90010-Pharm-1018, read-out: absolute IC50, proliferation; cited from earlier work.
Data set [2] can be described thus: Biopharmaceutic and physicochemical profile.
For data set [3], the system named is human ether-à-go-go-related gene (hERG). Also noted: method as in Investigator's Brochure. As to conditions: ref Investigator's Brochure; cited from earlier work.
The next data set deals with GBM15 GBM PDX. More on the design: method as in Unpublished data from Celgene Corporation. As to conditions: Day 29, ref Unpublished data from Celgene Corporation, cited from earlier work.
The subject of data set [4] is 14 PDX-derived GBM tumor models. Also noted: method as in Investigator's Brochure. As to conditions: ref Investigator's Brochure, cited from earlier work.
Details of data set [5]: method as in Investigator's Brochure. As to conditions: rats, IV, non-radiolabeled, ref Investigator's Brochure; cited from earlier work.
On the set-up of data set [6]: method as in Investigator's Brochure. As to conditions: ref Investigator's Brochure, cited from earlier work.
The test system of a further data set is GBM3 GBM PDX. Also noted: method as in Unpublished data from Celgene Corporation. As to conditions: ref Unpublished data from Celgene Corporation, cited from earlier work.
Data set [7] relates to BCRP, MRP2, OAT1, OAT3, OATP1B1, OATP1B3 and OCT2. More on the design: method as in Investigator's Brochure. As to conditions: MRP2, OAT1, OAT3, OATP1B1, OATP1B3 and OCT2, ref Investigator's Brochure; cited from earlier work.
Data set [8] relates to CYP1A2, CYP2A6, CYP2B6, CYP2E1 and CYP3A4/5. Also noted: method as in Investigator's Brochure. As to conditions: CYP1A2, CYP2A6, CYP2B6, CYP2E1 and CYP3A4/5, ref Investigator's Brochure; cited from earlier work.

Read-outs that look alike come from different tables or passages of the source. Where only a bound is given, the exact number is not on record here.

`Cn1cc(-c2cc(S(C)(=O)=O)ccc2OCC2CC2)c2ccccc2c1=O` [trotabresib]: in data set [1], the time-dependent inhibition entry is recorded as “little to no time-dependent”. For the same compound, the IC50 in the data set on U-2932 (DOX-R) is 348 nM; in data set [3], 24300 nM; in [4] (read-out: overall mean IC50, colony formation), 620 ± 130 nM. For the same compound, the ionization result in data set [2] is “non-ionizable”. In addition, in data set [2] (data on file), the “Biopharmaceutics Classification System (BCS) behavior” value is on record as “Category II like”. Besides, the “mean percent TGI” value with GBM15 GBM PDX (GBM15, 15 mg/kg/dose (5/2)) is listed as 65%; in the data set on GBM15 GBM PDX (GBM15, 25 mg/kg/dose (3/4)) it was 65%; in the data set on GBM15 GBM PDX (GBM15, 37.5 mg/kg/dose (2/5)), 70%. The “activity range of IC50 values” in [4] is recorded as 18 fold. In addition, in data set [5], the “dose excreted intact in bile or urine, average” value is 0.9 % of the dose. Besides, in data set [6] (4-week rat study, 3 days on/4 days off), the severely toxic dose is listed as at least 20 mg base/kg/dose. Moreover, in data set [6] (3 days-on/4 days-off schedule), the “overarching rat STD10” value is given as 20 mg base/kg/dose. In addition, the STD10 is listed as 20 mg base/kg/dose in data set [6] (female rats) and 30 mg base/kg/dose in [6] (male rats). In addition, the “functional observational battery (FOB) effects” value in data set [6] (rat) was “no CC-90010-related FOB effects”. Further, in data set [6], the “mean exposure corresponding to the rat STD10” value is 52800 ng·h/mL. The TGI is given as 76% in the data set on GBM3 GBM PDX (GBM3, 6 mg/kg orally BID) and 63% with GBM3 GBM PDX (GBM3, 12 mg/kg orally QD). Moreover, the transporter substrate status result in [7] was “not a substrate”. Besides, the direct inhibitory effect result in data set [8] was “little to no direct inhibitory effect”.

The record behind these values is article PMC10011554, “BET inhibitor trotabresib in heavily pretreated patients with solid tumors and diffuse large B-cell lymphomas” (Nature Communications, 2023).
